According to patent US20150133512A1, “N-ARYLTRIAZOLE COMPOUNDS AS LPAR ANTAGONISTS” (Hoffmann-La Roche Inc,, priority 2012, published 2015):

Experiments:
[1] = molecular target: T1, LPA3 (Homo sapiens, UniProt Q9UBY5); test: Calcium flux assay using FLIPR, LPA3 antagonist activity; type: cell-based; conditions: for IC50: antagonist activity
T1 sequence (Q9UBY5 1-353): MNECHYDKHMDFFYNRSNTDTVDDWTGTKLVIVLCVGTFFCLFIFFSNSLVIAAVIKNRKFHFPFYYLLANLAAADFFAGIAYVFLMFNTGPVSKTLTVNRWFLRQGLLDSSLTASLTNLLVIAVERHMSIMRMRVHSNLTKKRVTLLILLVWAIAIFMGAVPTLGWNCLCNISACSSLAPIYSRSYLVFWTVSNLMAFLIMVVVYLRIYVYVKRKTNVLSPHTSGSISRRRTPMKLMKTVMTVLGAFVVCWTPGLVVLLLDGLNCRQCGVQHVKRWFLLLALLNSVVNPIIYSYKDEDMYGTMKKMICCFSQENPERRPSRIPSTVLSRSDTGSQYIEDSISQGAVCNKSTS
Description: (§1) Calcium Flux Assay Using Fluorometric Imaging Plate Reader (FLIPR)
(§2) Dye Loading and Assay: Loading Buffer (FLIPR Calcium-4, Molecular Devices) was prepared by dissolving the contents of one bottle into 100 mL Hank's Balanced Salt Solution containing 20 mM HEPES and 2.5 mM probenecid. Plates were loaded onto Biotek plate washer and growth media was removed and replaced with 20 μL of Hank's Balanced Salt Solution containing 20 mM HEPES and 2.5 mM probenecid, followed by 25 μL of Loading Buffer. The plates were then incubated for 30 minutes at 37° C.
During the incubation, test compounds were prepared by adding 90 μL of HBSS/20 mM HEPES/0.1% BSA buffer to 2 μL of serially diluted compounds. To prepare serial dilutions, 10 mM stocks of compounds were prepared in 100% DMSO. The compound dilution plate was set up as follows: well #1 received 29 μL of stock compound and 31 μL DMSO; wells 2-10 received 40 μL of DMSO; mixed and transferred 20 μL of solution from well #1 into well #2; continued with 1:3 serial dilutions out 10 steps; transferred 2 μL of diluted compound into duplicate wells of 384 well “assay plate” and then added the 90 μL of buffer.
After incubation, both the cell and “assay” plates were brought to the FLIPR and 20 μL of the diluted compounds were transferred to the cell plates by the FLIPR. Compound addition was monitored by FLIPR to detect any agonist activity of the compounds. Plates were then incubated for 30 minutes at room temperature protected from light. After the incubation, plates were returned to the FLIPR and 20 μL of 4.5× concentrated agonist was added to the cell plates. During the assay, fluorescence readings were taken simultaneously from all 384 wells of the cell plate every 1.5 seconds. Five readings were taken to establish a stable baseline, then 20 μL of sample was rapidly (30 μL/sec) and simultaneously added to each well of the cell plate. The fluorescence was continuously monitored before, during and after sample addition for a total elapsed time of 100 seconds. Responses (increase in peak fluorescence) in each well following agonist addition was determined. The initial fluorescence reading from each well, prior to ligand stimulation, was used as zero baseline value for the data from that well. The responses were expressed as % inhibition of the buffer control.

[2] = molecular target: human recombinant LPA1 Lysophospholipid receptor (Homo sapiens, UniProt Q92633); test: Calcium flux assay using FLIPR, LPA1 antagonist activity; type: cell-based; conditions: for IC50: ChemiScreen Calcium-optimized stable cell line, antagonist mode, inhibition of agonist-induced calcium flux
Description: as §1
Cell Culture Conditions: The ChemiScreen Calcium-optimized stable cell line containing the human recombinant LPA1 Lysophospholipid receptor was purchased from Chemicon International, Inc./Millipore. The cells were cultured in DMEM-high glucose supplemented with 10% fetal bovine serum, 2 mM glutamine, 100 U/mL penicillin/100 μg/mL streptomycin, 1× non-essential amino acids, 10 mM HEPES and 0.25 mg/mL Geneticin. Cells were harvested with trypsin-EDTA and counted using ViaCount reagent. The cell suspension volume was adjusted to 2.0×10^5 cells/mL with complete growth media. Aliquots of 50 μL were dispensed into 384 well black/clear tissue culture treated plates (BD) and the microplates were placed in a 37° C. incubator overnight. The following day plates were used in the assay.
as §2
During the incubation, test compounds were prepared by adding 90 μL of HBSS/20 mM HEPES/0.1% BSA buffer to 2 μL of serially diluted compounds. To prepare serial dilutions, 10 mM stocks of compounds were prepared in 100% DMSO.
After incubation, both the cell and “assay” plates were brought to the FLIPR and 20 μL of the diluted compounds were transferred to the cell plates by the FLIPR. Compound addition was monitored by FLIPR to detect any agonist activity of the compounds. Plates were then incubated for 30 minutes at room temperature protected from light. […] During the assay, fluorescence readings were taken simultaneously from all 384 wells of the cell plate every 1.5 seconds. Five readings were taken to establish a stable baseline, then 20 μL of sample was rapidly (30 μL/sec) and simultaneously added to each well of the cell plate. The fluorescence was continuously monitored before, during and after sample addition for a total elapsed time of 100 seconds. Responses (increase in peak fluorescence) in each well following agonist addition was determined. The initial fluorescence reading from each well, prior to ligand stimulation, was used as zero baseline value for the data from that well. The responses were expressed as % inhibition of the buffer control.

Chain of human recombinant LPA1 Lysophospholipid receptor (Q92633 whole entry): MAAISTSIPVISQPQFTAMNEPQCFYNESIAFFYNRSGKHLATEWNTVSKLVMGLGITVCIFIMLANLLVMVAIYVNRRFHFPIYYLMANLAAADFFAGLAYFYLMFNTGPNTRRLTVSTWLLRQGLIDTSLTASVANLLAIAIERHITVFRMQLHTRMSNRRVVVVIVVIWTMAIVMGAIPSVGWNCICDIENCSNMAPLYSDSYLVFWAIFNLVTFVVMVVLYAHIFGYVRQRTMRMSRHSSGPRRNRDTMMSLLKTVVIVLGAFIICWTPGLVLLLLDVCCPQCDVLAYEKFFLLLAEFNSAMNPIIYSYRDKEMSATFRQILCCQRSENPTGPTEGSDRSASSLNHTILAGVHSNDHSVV

Row | Compound | IC50 [1] | IC50 [2] | inhibition at 30 µM [1] | inhibition at 30 µM [2]
1 | CCc1nnn(-c2ccc(-c3ccc(CC(=O)O)cc3)cc2)c1NC(=O)O[C@H](C)c1cccc(C(F)(F)F)c1 [Example 20] | 14.3 µM | 21.2 µM | 72.5% | 58.3%
2 | C[C@@H](OC(=O)Nc1cnnn1-c1ccc(-c2ccc(C3(C(=O)O)CC3)cc2)cc1)c1ccccc1 [Example 21, 1-{4′-[5-((R)-1-Phenyl-ethoxycarbonylamino)-[1,2,3]triazol-1-yl]-biphenyl-4-yl}-cyclopropanecarboxylic acid] | > 30 µM | 0.036 µM | 22% | 
3 | Cc1nnn(-c2ccc(-c3ccc(C(C)(C)C(=O)O)cc3)cc2)c1NC(=O)O[C@H](C)c1ccccc1 [Example 23, 2-Methyl-2-{4′-[4-methyl-5-((R)-1-phenyl-ethoxycarbonylamino)-[1,2,3]triazol-1-yl]-biphenyl-4-yl}-propionic acid] | > 30 µM | 0.796 µM |  | 80.9%
4 | Cc1nnn(-c2cccc(-c3ccc(C4(C(=O)O)CC4)cc3)c2)c1NC(=O)O[C@H](C)c1ccccc1 [Example 25, 1-{3′-[4-Methyl-5-((R)-1-phenyl-ethoxycarbonylamino)-[1,2,3]triazol-1-yl]-biphenyl-4-yl}-cyclopropanecarboxylic acid] | > 30 µM | > 30 µM |  | 
5 | Cc1nnn(-c2cccc(-c3ccc(CC(=O)O)cc3)c2)c1NC(=O)O[C@H](C)c1ccccc1 [Example 26, {3′-[4-Methyl-5-((R)-1-phenyl-ethoxycarbonylamino)-[1,2,3]triazol-1-yl]-biphenyl-4-yl}-acetic acid] | > 30 µM | > 30 µM |  | 
6 | Cc1nnn(-c2ccc(-c3ccc(C#N)cc3)cc2)c1NC(=O)O[C@H](C)c1ccccc1 [Example 28, [3-(4′-Cyano-biphenyl-4-yl)-5-methyl-3H-[1,2,3]triazol-4-yl]-carbamic acid (R)-1-phenyl-ethyl ester] | > 30 µM | > 30 µM |  | 
7 | Cc1nnn(-c2ccc(-c3ccc(C4(C(=O)NS(C)(=O)=O)CC4)cc3)cc2)c1NC(=O)O[C@H](C)c1ccccc1 [Example 30, {3-[4′-(1-Methanesulfonylaminocarbonyl-cyclopropyl)-biphenyl-4-yl]-5-methyl-3H[1,2,3]triazol-4-yl}-carbamic acid (R)-1-phenyl-ethyl ester] | > 30 µM | 0.033 µM |  | 
8 | C[C@@H](OC(=O)Nc1nncn1-c1ccc(-c2ccc(C3(C(=O)O)CC3)cc2)cc1)c1ccccc1 [Example 31, 1-{4′-[3-((R)-1-Phenyl-ethoxycarbonylamino)-[1,2,4]triazol-4-yl]-biphenyl-4-yl}-cyclopropanecarboxylic acid] | > 30 µM | > 30 µM |  | 11%
9 | Cc1nnn(-c2ccc(C3CCC(CC(=O)O)CC3)cc2)c1NC(=O)O[C@H](C)c1ccccc1 (stereo partly drawn) [Example 34, (R)-2-(4-(4-(4-Methyl-5-((1-phenylethoxy)carbonylamino)-1H-1,2,3-triazol-1-yl)phenyl)cyclohexyl)acetic acid] | > 30 µM | 9.48 µM |  | 
10 | Cc1nnn(-c2ccc(-c3ccc(C4(C(=O)NS(C)(=O)=O)CC4)cc3)cc2)c1NC(=O)O[C@H](C)c1cccc(C(F)(F)F)c1 [Example 35, {3-[4′-(1-Methanesulfonylaminocarbonyl-cyclopropyl)-biphenyl-4-yl]-5-methyl-3H[1,2,3]triazol-4-yl}-carbamic acid (R)-1-(3-trifluoromethyl-phenyl)-ethyl ester] | 5.74 µM | 4.53 µM |  | 

Second part, the molecule after the results:

Row | IC50 [1] | IC50 [2] | inhibition at 30 µM [1] | inhibition at 30 µM [2] | Compound
11 | 4.82 µM | 0.412 µM |  |  | CCc1nnn(-c2ccc(-c3ccc(C4(C(=O)O)CC4)cc3)cc2)c1NC(=O)O[C@H](C)c1cccc(C(F)(F)F)c1 [Example 19, 1-(4′-{4-Ethyl-5-[(R)-1-(3-trifluoromethyl-phenyl)-ethoxycarbonylamino]-[1,2,3]triazol-1-yl}-biphenyl-4-yl)-cyclopropanecarboxylic acid]
12 | > 30 µM | > 30 µM |  |  | C[C@@H](OC(=O)Nc1cnnn1-c1ccc(-c2ccc(CC(=O)O)cc2)cc1)c1ccccc1 [Example 22, {4′-[5-((R)-1-Phenyl-ethoxycarbonylamino)-[1,2,3]triazol-1-yl]-biphenyl-4-yl}-acetic acid]
13 | > 30 µM | > 30 µM |  |  | Cc1nnn(-c2ccc(-c3cccc(C4(C(=O)O)CC4)c3)cc2)c1NC(=O)O[C@H](C)c1ccccc1 [Example 24, (R)-1-(4′-(4-Methyl-5-((1-phenylethoxy)carbonylamino)-1H-1,2,3-triazol-1-yl)biphenyl-3-yl)cyclopropanecarboxylic acid]
14 | > 30 µM | > 30 µM |  |  | Cc1nnn(-c2ccc(-c3ccccc3)cc2)c1NC(=O)O[C@H](C)c1ccccc1 [Example 27, (3-Biphenyl-4-yl-5-methyl-3H-[1,2,3]triazol-4-yl)-carbamic acid (R)-1-phenyl-ethyl ester]
15 | > 30 µM | 0.088 µM |  |  | C=CCC(C(=O)O)c1ccc(-c2ccc(-n3nnc(C)c3NC(=O)O[C@H](C)c3ccccc3)cc2)cc1 (stereo partly drawn) [Example 33, (R)-2-{4′-[4-Methyl-5-(-1-phenylethoxycarbonylamino)-[1,2,3]triazol-1-yl]-biphenyl-4-yl}-pent-4-enoic acid]
